Results reported in US20050113367A1, “Pharmaceutical composition” (SANKYO COMPANY, LIMITED, priority 2000, published 2005).

System: spontaneously hypertensive rats (SHRs)
Assay: Hypotensive effects elicited by co-administration of CS-866 and hydrochlorothiazide (telemetry blood pressure in SHRs)
Assay type: in vivo, rat
Settings: male SHRs, in mmHg (unit assumed)
Source text: Hypotensive Effects Elicited by Co-Administration of CS-866 and Hydrochlorothiazide
Twenty-eight male spontaneously hypertensive rats aged 20 weeks (SHRs, SPF grade, purchased from Hoshino Laboratory Animals) were used. A transmitter of a telemeter (TA11PA-C40, DATA SCIENCES Inc.) was implanted in each SHR for recording blood pressure. After recovery from the surgical operations, blood pressure was monitored in the rats from the age of 24 weeks. The rats were orally given 0.5% carboxymethylceflulose solution (CMC, 2 ml/kg) for 7 successive days (once daily) by gavage. They were divided into 4 groups (7 SHRs per group) so as to give equally averaged blood pressure levels in the groups based on the blood pressure recorded on the 5th and 6th days after the CMC solution was initiated. The rats were orally treated with 0.5% CMC solution (2 ml/kg, control group) or test substance suspended in 0.5% CMC solution (2 ml/kg) for 14 successive days (once daily). Blood pressure was monitored 1 day prior to the drug administration and on the 7th and 14th days after the drug was initiated. The group composition, test substances, doses and blood pressure (the 24 hour mean blood pressure A standard error on the respective monitoring days) are summarized in Tables 1 and 2.
The test substances were hydrochlorothiazide (HCTZ), CS-866, and HCTZ and CS-866. HCTZ was prepared so as to be 10 mg/2 ml of final concentration with 0.5% CMC solution. CS-866 was suspended in 0.5% CMC solution so as to be at a final concentration of 1 mg/2 ml. CS-866 and HCTZ solution was prepared so as to be at a final concentration of [10 mg (HCTZ)+1 mg (CS-866)]/2 ml with 0.5% CMC solution.

[1] = 7th day after administration, oral once daily, HCTZ 10 mg/kg, CS-866 1 mg/kg, or both
[2] = 14th day after administration, oral once daily, HCTZ 10 mg/kg, CS-866 1 mg/kg, or both
[3] = 1 day before administration (baseline), oral, once daily, n=7 per group

Row | Compound | Blood pressure levels (24 hour mean blood pressure ± standard error) [1] | Blood pressure levels (24 hour mean blood pressure ± standard error) [2] | Blood pressure levels (24 hour mean blood pressure ± standard error) [3]
1 | CCCc1nc(C(C)(C)O)c(C(=O)OCc2oc(=O)oc2C)n1Cc1ccc(-c2ccccc2-c2nnn[nH]2)cc1 [CS-866, (5-methyl-2-oxo-1,3-dioxolen-4-yl)methyl 4-(1-hydroxy-1-methylethyl)-2-propyl-1-[2′-(1H-tetrazol-5-yl)biphenyl-4-ylmethyl]imidazol-5-carboxylate] | 147 ± 4 | 148 ± 4 | 167 ± 6
2 | NS(=O)(=O)c1cc2c(cc1Cl)NCNS2(=O)=O [HCTZ, 6-chloro-3,4-dihydro-2H-1,2,4,-benzothiadiazin-7-sulfonamide 1,1-dioxide] | 152 ± 6 | 156 ± 6 | 165 ± 6
